Molecular target: T1, endothiapepsin (Cryphonectria parasitica, UniProt P11838)
T1 construct: Endothiapepsin was purified from Suparen; purchased DSM Food Specialties, Heerlen, The Netherlands (kindly provided) Suparen
T1 sequence (P11838 90-419): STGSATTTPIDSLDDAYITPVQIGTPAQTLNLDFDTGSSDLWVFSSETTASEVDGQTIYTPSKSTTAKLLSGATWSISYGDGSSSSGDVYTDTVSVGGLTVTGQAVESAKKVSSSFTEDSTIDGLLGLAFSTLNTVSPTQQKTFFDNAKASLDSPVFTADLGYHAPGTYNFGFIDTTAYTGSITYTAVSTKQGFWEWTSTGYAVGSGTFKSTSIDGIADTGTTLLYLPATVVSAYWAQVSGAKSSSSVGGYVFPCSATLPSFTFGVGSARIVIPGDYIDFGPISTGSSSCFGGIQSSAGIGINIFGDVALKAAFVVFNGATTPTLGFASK
Experiment: Fluorescence-based enzymatic inhibition assay (adapted from the HIV protease assay)
Assay type: biochemical
Conditions: for IC50: 0.4 nM endothiapepsin, 1.8 μM substrate, pH 4.6, 2.1% DMSO, E/Z mixture, duplicate, ± SD; for ΔGexpt, experimental Gibbs free energy of binding: derived from the experimentally determined IC50 values using the Cheng–Prusoff equation; for LE (ligand efficiency): obtained from the IC50 values using the Cheng–Prusoff equation
Source text: To determine their inhibitory potency against endothiapepsin, we subjected these acylhydrazone derivatives to a fluorescence-based enzymatic inhibition assay, adapted from the HIV protease assay.
Endothiapepsin was purified from Suparen® (kindly provided by DSM Food Specialties, Heerlen, The Netherlands) by exchanging the buffer to sodium acetate buffer (0.1 M, pH 4.6) using a Vivaspin 500 (Sartorius, Rotterdam, The Netherlands) with a molecular weight cutoff at 10,000 Da.
Stock solutions (100 mM in DMSO) were prepared for acylhydrazones 2–9 (mixture of E/Z isomers). The final reaction volume was 200 μL containing 0.4 nM endothiapepsin, 1.8 μM substrate and 2.1% DMSO. The final concentration of inhibitors was 1000 μM in the first well and subsequent half dilution in next 10 wells. In the same way, blanks were prepared using DMSO instead of the inhibitor stock solutions. As substrate, Abz–Thr–Ile–Nle-p-nitro-Phe–Gln–Arg–NH2 (purchased from Bachem, Bubendorf, Switzerland) was used for the fluorescence screening assay. The assay was performed with flat bottom 96-well microplates (purchased from Greiner Bio-One, Alphen aan den Rijn, The Netherlands) using a Synergy Mx microplate reader at an excitation wavelength of 337 nm and an emission wavelength of 414 nm. […] The assay buffer (0.1 M sodium acetate buffer, pH 4.6, containing 0.001% Tween 20) was premixed with the substrate and inhibitor; endothiapepsin was added directly before the measurement. As the substrate is a fluorogenic substrate, during measurement the fluorescence increased because of substrate hydrolysis by endothiapepsin. The initial slopes of the fluorescence in the acylhydrazone-containing wells were compared to the initial slope of the blanks for data analysis.

Row | Compound | IC50 [µM] | ΔGexpt, experimental Gibbs free energy of binding [kcal/mol] | LE (ligand efficiency)
1 | Cc1ccccc1/C=N/NC(=O)[C@@H](N)Cc1c[nH]c2ccccc12 [compound 7] | 59 ± 4 | -6.21 | 0.26
2 | Cc1cccc(/C=N\NC(=O)[C@@H](N)Cc2c[nH]c3ccccc23)c1O [compound 5] | 36 ± 11 | -6.5 | 0.26
3 | N[C@@H](Cc1c[nH]c2ccccc12)C(=O)N/N=C/c1ccc(C(F)(F)F)cc1 [compound 2] | 7 ± 0.5 | -7.48 | 0.28
4 | N[C@@H](Cc1c[nH]c2ccccc12)C(=O)N/N=C/c1ccccc1Br [compound 6] | 54.5 ± 0.5 | -6.26 | 0.26
5 | Cc1cccc(C)c1/C=N/NC(=O)[C@@H](N)Cc1c[nH]c2ccccc12 [compound 8] | 30 ± 5 | -6.62 | 0.26
6 | N[C@@H](Cc1c[nH]c2ccccc12)C(=O)N/N=C/c1cccc(C(F)(F)F)c1 [compound 3] | 244 ± 32 | -5.38 | 0.20
7 | N[C@@H](Cc1c[nH]c2ccccc12)C(=O)N/N=C/c1ccccc1 [compound 9] | – | -6.31 | 0.27
8 | N[C@@H](Cc1c[nH]c2ccccc12)C(=O)N/N=C/c1ccccc1F [compound 4] | 38 ± 7 | -6.48 | 0.27

Source: PMC4581293, “Structure-Based Optimization of Inhibitors of the Aspartic Protease Endothiapepsin” (International Journal of Molecular Sciences, 2015)
